According to patent US10307410B2, “Mcl-1 modulating compounds for cancer treatment” (CENTRE REGIONAL DE LUTTE CONTRE LE CANCER FRANCOIS BACLESSE, priority 2014, dated 2019):
“Also recorded” adds a separate entry of the source.

What was measured:
[1] = test system: SKOV3 chemoresistant ovarian cancer cells; assay: Pyridoclax / ABT-737 association, apoptotic cell death; type: cell-based, human; details: SKOV3, single agent
Method: (§1) FIG. 4 represents the effect of the association of Pyridoclax with ABT-737 on chemoresistant ovarian cancer cells IGROV1-R10 (top) and SKOV3 (bottom). Cells were concomitantly (A, E) or sequentially (B) exposed to 25 μM Pyridoclax and 5 μM ABT-737, and cellular effects were assessed either longitudinally (A, B, E) or after 24 h (C, D, F). [A, B, E] real time cellular activity assessed by impedancmetry (xCELLigence technology), after concomitant exposure (A, E) or sequential exposure (B; 24 h Pyridoclax, then ABT-737). [C]: Cellular morphology and DNA content histograms after a 24 h concomitant exposure. [D and F]: PARP and caspase 3 cleavage after a 24 h concomitant exposure.
(§2) Adherent and floating cells were pooled, washed with 1×PBS and centrifuged at 200 g for 5 min before staining by Annexin V, propidium iodide or both, as recommended by the manufacturer (Roche Diagnostic, Indianapolis, USA). Briefly, 100 μl of Annexin V—Flit or propidium iodide or both were added on the cells pellet (10^6 cells) and incubated 15 minutes at room temperature in obscurity. 500 μl of sample buffer was then added on the suspensions that were thereafter analyzed using a Gallios flow cytometer (Beckman Coulter, Roissy, France) and cell cycle distribution was determined using Kaluza acquisition software (Beckman Coulter).
(§3) Cells were rinsed with ice-cold PBS, suspended in a lysis buffer [RIPA:NaCl 150 mM, Tris (pH 8) 50 mM, Triton X100 1%, PMSF 4 mM, EDTA 5 mM, NaF 10 mM, NaPPi 10 mM, Na3OV4 1 mM, aprotinin 0.5 μl/ml and 4.6 ml ultra pure water] and incubated on ice for 30 minutes. Lysates were collected after centrifugation (13200 g, 10 min, 4° C.) and protein concentrations were determined using the Bradford assay (Bio-Rad, Hercules, USA). 20 μg of protein were separated by SDS-PAGE on a 4-12% gradient polyacrylamide gel (Invitrogen, Cergy-Pontoise, France) and transferred to Hybond-PVDF membranes (Amersham, Orsay, France). […]

Mcl-1/Puma interaction = biological target: T1, Mcl-1/Puma interaction (Homo sapiens, UniProt Q07820); assay: BRET assay, Mcl-1/Puma interaction; type: cell-based; details: BRET in Hela cells, 10 μM, 16 hours
T1 construct: expressed in transfected cells; host or cells: HeLa cells
T1 sequence (Q07820 whole entry): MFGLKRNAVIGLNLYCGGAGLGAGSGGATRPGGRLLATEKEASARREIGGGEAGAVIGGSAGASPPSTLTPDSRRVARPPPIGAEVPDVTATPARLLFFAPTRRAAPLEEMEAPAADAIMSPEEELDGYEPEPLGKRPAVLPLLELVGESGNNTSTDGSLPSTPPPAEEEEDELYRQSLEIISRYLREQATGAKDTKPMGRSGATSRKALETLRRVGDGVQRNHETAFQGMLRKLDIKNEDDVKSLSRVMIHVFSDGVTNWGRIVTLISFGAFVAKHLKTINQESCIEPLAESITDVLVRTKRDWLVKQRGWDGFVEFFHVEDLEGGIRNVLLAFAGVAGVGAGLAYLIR
Method: (§4) Hela cells were seeded on 6-well plates and transfected with 200 ng/well of plasmid pRLuc-Bax, pRLuc-Puma or pRLuc-Noxa coding for BRET donors and 1 µg/well of peYFP-Bcl-xL or peYFP-Mcl-1 coding for BRET acceptors (or with pCMV-Bcl-xL or pCMV-Mcl-1 for control). Twenty-four hours after transfection, cells were trypsinized and re-seeded into white 96 well plate flat bottom, incubated for another day, and then treated with drugs for 16 hours at 10 μM. Light emission at 485 nm and 530 nm was measured consecutively using the Mithras fluorescence-luminescence detector LB 940 (Berthold) after adding the luciferase substrate, coelenterazine H (Uptima) at a final concentration of 5 μM. BRET ratios were calculated as described [Terrillon et al. (2003) Mol Endocrinol 17, 677-691, Vo et al. (2012) Eur J Med Chem., 286-93].

Noxa/Mcl-1 interaction = biological target: T2, Noxa/Mcl-1 interaction (Homo sapiens, UniProt Q07820); assay: BRET assay, Noxa/Mcl-1 interaction; type: cell-based; details: BRET in Hela cells, 10 μM, 16 hours
T2 construct: expressed in transfected cells; host or cells: HeLa cells
T2 sequence (Q07820 whole entry): as above
Method: as §4

[2] = test system: IGROV1-R10 chemoresistant ovarian cancer cells; assay: Pyridoclax / ABT-737 association, apoptotic cell death; type: cell-based; details: IGROV1-R10, single agent
Method: as §1, §2, §3

CN(C)CC[C@H](CSc1ccccc1)Nc1ccc(S(=O)(=O)NC(=O)c2ccc(N3CCN(Cc4ccccc4-c4ccc(Cl)cc4)CC3)cc2)cc1[N+](=O)[O-] [ABT-737, 4-[4-[[2-(4-chlorophenyl)phenyl]methyl]piperazin-1-yl]-N-[4-[[(2R)-4-(dimethylamino)-1-phenylsulfanylbutan-2-yl]amino]-3-nitrophenyl]sulfonylbenzamide, reference compound]
cell death as single agent [1]: neither ABT-737 nor Pyridoclax induced cell death as single agents
effect on Mcl-1/Puma interaction (Mcl-1/Puma interaction): not able to modify these interactions; also recorded: not able to modify this interaction
effect on Noxa/Mcl-1 interaction (Noxa/Mcl-1 interaction): not able to modify these interactions
cell death as single agent [2]: neither ABT-737 nor Pyridoclax induced cell death as single agents
